Source: patent publication US9944721B2, “Polysialic acid and use for treatment of neurodegenerative and neuroinflammatory diseases” (RHEINISCHE FRIEDRICH-WILHELMS UNIVERSITÄT BONN, priority 2013, dated 2018)

Experiments:
human microglia = assay: Microglial phagocytosis of fluorescently labeled neural debris; type: cell-based; conditions: 1 hour pre-incubation, untreated 32%+/−0.02
Method: The human microglia were challenged with fluorescently labeled neural debris and the uptake of the debris into the cells was determined by confocal microscopy and 3D-reconstruction.
To receive debris, neural stem cells were incubated with 40 nM okadaic acid (Sigma) for 24 hours. Then, cellular debris was collected and centrifuged. Debris was washed with PBS and stained with “Dil Derivatives for Long-Term Cellular Labeling” Molecular Probes (Invitrogen) according to the supplier's manual. Microglial cells were pre-incubated for 1 hour with concentration of 0.15 μM, 0.5 μM or 1.5 μM PSA-20 followed by 1 hour of incubation with 5 μg/ml prestained neural debris. Cells were fixed and incubated with an anti-iba1 antibody (Wako, Japan) followed by a secondary Alexa488-conjugated antibody (Molecular probes). For analysis images were randomly scanned and 3D-reconstructions were obtained by a confocal laser scanning microscope (Fluoview 1000, Olympus). To determine the ratio of cells having ingested fluorescently labeled material, six images per experiment group were obtained and all cells on the images were quantified using Image J software (NIH).

[1] = test system: humanized Siglec-11 transgenic mice; assay: Experimental autoimmune encephalomyelitis (animal model of multiple sclerosis); type: in vivo
Method: Experimental autoimmune encephalomyelitis was induced in humanized Siglec-11 transgenic mice (humanized Siglec-11 mouse) and littermate control mice (normal control mice). Therefore, adult 6-8 weeks-old female humanized Siglec-11 transgenic mice (Wang et al. 2009, dissertation, University Bonn, uniform resource name: urn:nbn:de:hbz:5N-18095) and littermate control mice were immunized with 100 μg of myelin oligodendrocyte glycoprotein MOG (amino acids 35-55; Seqlab) in […] Freunds adjuvant (both DIFCO; BD GmbH, Heidelberg, Germany). Pertussis toxin (200 ng; List Biological Laboratories, Epsom, UK) was injected on days 0 and 2 of immunization. Clinical signs were scored as following: 0, no clinical signs; 1, complete limp tail; 2, complete limp tail and weakness of hindlimbs; 3, paraparesis of at least one hindlimb; 4, complete hindlimb paraparesis and weakness of forelimbs; and 5, fore- and hindlimb paralysis or moribund. Only mice having disease onset (clinical score of >=1) until day 20 were used for experiments.
Low molecular weight PSA-20 (1 μg per g body weight) was applied intraperitoneally into the mice on the day of disease onset (clinical score at least 1) and daily on the following three consecutive days. […] The cumulative disease score from the first day of treatment until day 25 was determined.

[2] = test system: LPS-activated human microglia; assay: LPS-induced TNF-alpha gene transcription in human microglia (qRT-PCR); type: cell-based; conditions: LPS 1 μg/ml, 24 hours
Method: To analyse whether polysialic acid might interfere with a pro-inflammatory phenotype of human microglia, cultured human microglia were activated with lipopolysaccharides (LPS) and the effect of the distinct sialic acid forms including fractions of oligosialic and polysialic acid on the gene transcription of the pro-inflammatory cytokine tumor necrosis factor-alpha induced by the bacterial toxin LPS was determined. A human microglial line derived from induced pluripotent stem cells as described in WO 2010/125110 was used to study the effect of sialic acid forms with different chain length. Human microglial cells were cultured on 5 μg/ml poly-L-lysin (PLL, Sigma)-coated dishes in N2-medium containing DMEM/F12 culture medium (Gibco) supplemented with 1% N2 (Invitrogen), 0.48 mM L-glutamine (Gibco) and optionally 100 μg/ml penicillin/streptomycin (Gibco). Cells were cultured with high density and splitted 1:2 when required. The human induced pluripotent stem cell derived microglia line was treated with lipopolysaccharides (LPS, 1 μg/ml, Invivogen) and sialic acid forms with different chain length for 24 hours. Gene transcripts for tumor necrosis factor-α (TNF-alpha) were determined by quantitative RT-PCR and normalized to GAPDH. In detail, RNA isolation was performed using RNeasy Mini Kit (Qiagen) and transcription with the SuperScript First-Strand Synthesis System (Invitrogen). Quantitative RT-PCR with specific oligonucleotides (GAPDH: […] (SEQ ID NO: 1) and […] (SEQ ID NO: 2); TNFα: […] (SEQ ID NO: 3) and […] (SEQ ID NO: 4)) was performed using SYBR green PCR Master Mix with the Mastercycler epgradients S (Eppendorf). Results were normalized to GAPDH. Quantification using the delta-CT method was carried out.

[3] = test system: human microglial cells stimulated with fibrillary amyloid-β1-42; assay: Amyloid-β1-42 induced superoxide release of human microglia (DHE); type: cell-based; conditions: Aβ 10 μM
Method: The human microglial cell line was treated with human Alzheimer's disease associated fibrillary amyloid-beta peptide (Aβ) to mimic inflammatory signalling of Alzheimer's disease brain tissue. To obtain fibrillary components of Aβ, the synthetic amyloid-beta peptide (amyloid-beta 1-42, Bachem/Brucker, 10 μM) was preincubated at 37° C. for at least three days. The human microglial cells were treated with the different concentrations of 0.15 μM, 0.5 μM, or 1.5 μM of low molecular weight polysialic acid (PSA-20) for 60 minutes followed by incubation for 15 minutes with fibrillary Aβ. Then, 30 μM dihydroethidium (DHE) was added and incubated at 37° C. for 15 minutes for measurement of superoxide anion radical production. Cells were fixed with 4% paraformaldehyde plus 0.25% glutaraldehyde and analyzed by confocal microscopy. For the quantification of DHE staining intensity six pictures of each experiment were obtained and analyzed by ImageJ software (NIH). The background was subtracted and the mean values of the staining intensities were compared. Cells were fixed and the intensity of DHE was quantified by confocal microscopy.
To confirm the specificity of the DHE measurement, the determination of the effect of PSA-20 on superoxide production in human microglial cells was repeated. As a control the radical scavenger Trolox, a water-soluble vitamin E analogue, was added to the system. Furthermore, as additional control superoxide dismutase-1 (SOD1) was added into the medium. Superoxide should no longer be detectable by the DHE dye after successful transformation of superoxide by SOD1.
Human microglial cells were cultured alone and production of reactive oxygen species was analyzed after treatment with the Alzheimer's disease plaques associated fibrillary amyloid-β1-42. To measure the relative production of superoxide by the microglial cells, cells were plated in 4-chamber culture dishes. After 24 hours human microglial cells were treated with 1.5 μM of low molecular weight polysialic acid (PSA-20) for 60 minutes followed by incubation for 15 minutes with 10 μM fibrillary amyloid-β1-42. Control dishes were treated with either 1.5 μM PSA-20 and 40 μM Trolox or 1.5 μM PSA-20 and 20 μg/ml superoxide dismutase-1 (SOD1, Serva). Then, cells were washed 2-times with Krebs-HEPES-buffer and afterwards incubated for 15 minutes with 30 μM DHE solution (diluted in Krebs-HEPES-buffer). Finally cells were washed 2-times with Krebs-HEPES-buffer and fixed for 15 minutes with 0.25% glutaraldehyde and 4% PFA. In total, six images were randomly collected per experimental group by confocal laser scanning microscopy (Fluoview 1000, Olympus). All cells of the collected images were analyzed by Image J software (NIH).

For poly-(α(2→8)Neu5Ac)n [PSA-20], the “percentage of microglia having ingested neural debris” value (human microglia; 0.5 μM) was 25%+/−0.02, the “percentage of microglia having ingested neural debris” value (human microglia; 1.5 μM) was 22%+/−0.01 and the “clinical signs (clinical score)” value ([1]; Siglec-11 transgenic mice, 1 μg per g body weight i.p. from disease onset, 4 days, from day 14 onwards, FIG. 8A) was “improved clinical signs”. The cumulative disease score ([1]; first day of treatment until day 25, FIG. 8B) was “improved the clinical signs of disease”, the “LPS-induced gene transcription of TNF-alpha” value ([2]; 0.15 μM, 0.5 μM and 1.5 μM, FIG. 3) was “reduced” and the “Anti-inflammatory effect on TNF-alpha of LPS-activated human microglia” value ([2]; summary of Example 4) was “Yes”. For the same substance, the “Aβ induced superoxide release” value ([3]; 1.5 μM, 60 minutes pre-treatment, FIG. 4A) was “reduced” and the “amyloid-β1-42 induced stimulation of the superoxide production” value ([3]; repeat, FIG. 4B, PSA-20 1.5 μM, Trolox 40 μM, SOD1 20 μg/ml) was “prevented”.
